Laboratory results as given in US10807970B2 (priority 2016, dated 2020).

molecular target: human σ1 receptor (Homo sapiens, UniProt Q99720); assay: Human σ1 receptor radioligand assay ([3H](+)-pentazocine, transfected HEK-293 membranes); type: binding; set-up: μ and σ1 dual binding: key to the marks not given beside the values; conditions: one class symbol for both Ki-σ1 (human σ1 receptor, A1) and Ki-μ (human μ-opioid receptor, A2)
Protocol: Human σ1 Receptor Radioligand Assay
To investigate binding properties of test compounds to human σ1 receptor, transfected HEK-293 membranes and [^3H](+)-pentazocine (Perkin Elmer, NET-1056), as the radioligand, were used. The assay was carried out with 7 μg of membrane suspension, 5 nM of [^3H](+)-pentazocine in either absence or presence of either buffer or 10 μM Haloperidol for total and non-specific binding, respectively. Binding buffer contained Tris-HCl 50 mM at pH 8. Plates were incubated at 37° C. for 120 minutes. After the incubation period, the reaction mix was then transferred to MultiScreen HTS, FC plates (Millipore), filtered and plates were washed 3 times with ice-cold 10 mM Tris-HCL (pH7.4). Filters were dried and counted at approximately 40% efficiency in a MicroBeta scintillation counter (Perkin-Elmer) using EcoScint liquid scintillation cocktail

human σ1 receptor, sequence (Q99720 whole entry): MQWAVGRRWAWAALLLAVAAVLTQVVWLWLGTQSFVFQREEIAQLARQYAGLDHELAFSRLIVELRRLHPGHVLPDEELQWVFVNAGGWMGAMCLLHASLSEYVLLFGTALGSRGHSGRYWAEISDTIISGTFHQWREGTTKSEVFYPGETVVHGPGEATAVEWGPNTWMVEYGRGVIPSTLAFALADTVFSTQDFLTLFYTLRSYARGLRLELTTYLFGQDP

Structure (SMILES) | μ and σ1 dual binding
CC1(C)CC(C(=O)c2ccccn2)(N2CCN(Cc3ccccc3)CC2)CC(C)(C)O1 [Example 17, (4-(4-benzylpiperazin-1-yl)-2,2,6,6-tetramethyltetrahydro-2H-pyran-4-yl)(pyridin-2-yl)methanone] | ++
CN(Cc1ccccc1)C1CN(C2(C(=O)c3ccccn3)CCOC(C)(C)C2)C1 (stereo not drawn) [Example 19, (4-(3-(benzyl(methyl)amino)azetidin-1-yl)-2,2-dimethyltetrahydro-2H-pyran-4-yl)(pyridin-2-yl)methanone] | ++
O=C(c1ccccn1)C1(N2CCN(Cc3ccccc3)CC2)CCOC1 (stereo not drawn) [Example 20, (3-(4-benzylpiperazin-1-yl)tetrahydrofuran-3-yl)(pyridin-2-yl)methanone] | ++
O=C(c1ccccn1)C1(C2CCN(Cc3ccccc3)CC2)CCOCC1 [Example 21, (4-(1-benzylpiperidin-4-yl)tetrahydro-2H-pyran-4-yl)(pyridin-2-yl)methanone] | ++
C[C@@H]1C[C@@](C(=O)c2ccccn2)(N2CCN(Cc3ccccc3)CC2)CCO1 [Example 28] | ++
c1ccc(CN2CCN(C3(c4ccccc4)CCOCC3)CC2)cc1 [Example 30, 1-benzyl-4-(4-phenyltetrahydro-2H-pyran-4-yl)piperazine] | ++
CCC1(N2CCN(Cc3ccccc3)CC2)CCOCC1 [Example 31, 1-benzyl-4-(4-ethyltetrahydro-2H-pyran-4yl)piperazine] | ++
CC1(C)CC(C)(N2CCN(Cc3ccccc3)CC2)CCO1 (stereo not drawn) [Example 36, 1-benzyl-4-(2,2,4-trimethyltetrahydro-2H-pyran-4-yl)piperazine] | ++
CC(C)OCCN1CCN(C2(C)CCOC(C)(C)C2)CC1 (stereo not drawn) [Example 37, 1-(2-isopropoxyethyl)-4-(2,2,4-trimethyltetrahydro-2H-pyran-4-yl)piperazine] | ++
CCC1(N2CCN(Cc3ccccc3)CC2)CCOC(C)(C)C1 (stereo not drawn) [Example 38, 1-benzyl-4-(4-ethyl-2,2-dimethyltetrahydro-2H-pyran-4-yl)piperazine] | ++
CCC1(N2CCN(CCOC(C)C)CC2)CCOC(C)(C)C1 (stereo not drawn) [Example 39, 1-(4-ethyl-2,2-dimethyltetrahydro-2H-pyran-4-yl)-4-(2-isopropoxyethyl)piperazine] | ++

same assay, conditions: one class symbol for both Ki-σ1 (human σ1 receptor, A1) and Ki-μ (human μ-opioid receptor, A2); read-out: μ and σ1 dual binding

Structure (SMILES) | Ki [nM]
CC(C)CN1CCN(C2(C(=O)c3ccccn3)CCOC(C)(C)C2)CC1 (stereo not drawn) [Example 14, (4-(4-isobutylpiperazin-1-yl)-2,2-dimethyltetrahydro-2H-pyran-4-yl)(pyridin-2-yl)methanone] | > 500
CC(C)OCCN(C)C1CN(C2(C(=O)c3ccccn3)CCOC(C)(C)C2)C1 (stereo not drawn) [Example 23, (4-(3-((2-isopropoxyethyl)(methyl)amino)azetidin-1-yl)-2,2-dimethyltetrahydro-2H-pyran-4-yl)(pyridin-2-yl)methanone] | > 500
C[C@@H]1C[C@@](C(=O)c2ccccn2)(N2CCN(Cc3ccccc3)CC2)CCO1 [Example 25] | > 500
C[C@@H]1C[C@@](C(=O)c2ccccn2)(N2CCN(CCc3ccccc3)CC2)CCO1 [Example 26] | < 500
C[C@H]1C[C@](C(=O)c2ccccn2)(N2CCN(Cc3ccccc3)CC2)CCO1 [Example 27] | < 500
C=CC1(N2CCN(CCc3ccccc3)CC2)CCOC(C)(C)C1 (stereo not drawn) [Example 45, 1-(2,2-dimethyl-4-vinyltetrahydro-2H-pyran-4-yl)-4-phenethylpiperazine] | > 500
CC1(C)CC(CCO)(N2CCN(CCc3ccccc3)CC2)CCO1 (stereo not drawn) [Example 48, 2-(2,2-dimethyl-4-(4-phenethylpiperazin-1-yl)tetrahydro-2H-pyran-4-yl)ethanol] | > 500

same assay, conditions: μ and σ1 dual binding, one class symbol for both Ki-σ1 (human σ1 receptor, A1) and Ki-μ (human μ-opioid receptor, A2)

Structure (SMILES) | Ki [nM]
CC1(C)CC(C(=O)c2cccc(C(F)(F)F)n2)(N2CCN(Cc3ccccc3)CC2)CCO1 (stereo not drawn) [Example 15, (4-(4-benzylpiperazin-1-yl)-2,2-dimethyltetrahydro-2H-pyran-4-yl)(6-(trifluoromethyl)pyridin-2-yl)methanone] | < 100
CC(C)OCCN1CCN(C2(C(=O)c3cccc(C(F)(F)F)n3)CCOC(C)(C)C2)CC1 (stereo not drawn) [Example 16, (4-(4-(2-isopropoxyethyl)piperazin-1-yl)-2,2-dimethyltetrahydro-2H-pyran-4-yl)(6-(trifluoromethyl)pyridin-2-yl)methanone] | < 500
CC1(C)CC(C(=O)c2ccccn2)(N2CC3CN(Cc4ccccc4)CC3C2)CCO1 (stereo not drawn) [Example 18, (4-(5-benzylhexahydropyrrolo[3,4-c]pyrrol-2(1H)-yl)-2,2-dimethyltetrahydro-2H-pyran-4-yl)(pyridin-2-yl)methanone] | < 500
CC1(C)CC(C(=O)c2ccccn2)(C2CCN(Cc3ccccc3)CC2)CCO1 (stereo not drawn) [Example 22, (4-(1-benzylpiperidin-4-yl)-2,2-dimethyltetrahydro-2H-pyran-4-yl)(pyridin-2-yl)methanone] | < 500
CC1(C)CC(C(=O)c2ccccn2)(N2CCCN(Cc3ccccc3)CC2)CCO1 (stereo not drawn) [Example 24, (4-(4-benzyl-1,4-diazepan-1-yl)-2,2-dimethyltetrahydro-2H-pyran-4-yl)(pyridin-2-yl)methanone] | < 500
CCC1(N2CCN(Cc3ccccc3)CC2)CCOC2(CCCC2)C1 (stereo not drawn) [Example 29, 1-benzyl-4-(9-ethyl-6-oxaspiro[4.5]decan-9-yl)piperazine] | < 500
c1ccc(CN2CCN(C3(c4ccccc4)CCOC4(CCCC4)C3)CC2)cc1 (stereo not drawn) [Example 32, 1-benzyl-4-(9-phenyl-6-oxaspiro[4.5]decan-9-yl)piperazine] | < 100
CC(C)CN1CCN(C2(c3ccccc3)CCOC3(CCCC3)C2)CC1 (stereo not drawn) [Example 33, 1-isobutyl-4-(9-phenyl-6-oxaspiro[4.5]decan-9-yl)piperazine] | < 500
c1ccc(CN2CCN(C3(Cc4ccccc4)CCOC4(CCCC4)C3)CC2)cc1 (stereo not drawn) [Example 34, 1-benzyl-4-(9-benzyl-6-oxaspiro[4.5]decan-9-yl)piperazine] | < 500
CC1(C)CC(c2ccccc2)(N2CCN(Cc3ccccc3)CC2)CCO1 (stereo not drawn) [Example 35, 1-benzyl-4-(2,2-dimethyl-4-phenyltetrahydro-2H-pyran-4-yl)piperazine] | < 500
CC1(C)CC(Cc2ccccc2)(N2CCN(Cc3ccccc3)CC2)CCO1 (stereo not drawn) [Example 40, 1-benzyl-4-(4-benzyl-2,2-dimethyltetrahydro-2H-pyran-4-yl)piperazine] | < 100
CCCC1(N2CCN(CCc3ccccc3)CC2)CCOC(C)(C)C1 (stereo not drawn) [Example 41, 1-(2,2-dimethyl-4-propyltetrahydro-2H-pyran-4-yl)-4-phenethylpiperazine] | < 500
CC(C)C1(N2CCN(CCc3ccccc3)CC2)CCOC(C)(C)C1 (stereo not drawn) [Example 42, 1-(4-isopropyl-2,2-dimethyltetrahydro-2H-pyran-4-yl)-4-phenethylpiperazine] | < 100
CC(C)C1(N2CCN(Cc3ccccc3)CC2)CCOC(C)(C)C1 (stereo not drawn) [Example 43, 1-benzyl-4-(4-isopropyl-2,2-dimethyltetrahydro-2H-pyran-4-yl)piperazine] | < 500
CC1(C)CC(C2CC2)(N2CCN(CCc3ccccc3)CC2)CCO1 (stereo not drawn) [Example 44, 1-(4-cyclopropyl-2,2-dimethyltetrahydro-2H-pyran-4-yl)-4-phenethylpiperazine] | < 500
